Laboratory results as given in paper PMC4728661, “Cancer Prevention and Health Benefices of Traditionally Consumed Borago officinalis Plants” (Nutrients, 2016).
Where “and” joins values, the source holds several entries; their conditions need not be identical. Equal values may be shown once. Marks after values point to notes of the source that are not given here.

Tests used:
D. melanogaster [1] = assay: Toxicity: survival of Drosophila larvae to emerged adults, simple and combined (H2O2) treatments; type: in vivo, Drosophila melanogaster
Description: Optimal fertile flies were anesthetized under CO2 narcotisation for cross selection and then placed in new vials for fertilization. After that, hybrid eggs from crossing were collected over an 8 h period and emerged larvae (72 ± 4 h later) were cleaned up for a few seconds in sterile distilled water to remove feeding medium rests. […] Bioactive compound concentrations were chosen on the basis of their known content in B. officinalis species. […] Larvae were fed on these media until pupation (about 48 h). After emergence, resulting adult flies were sacrificed under CO2 narcotisation and stored in a 70% ethanol solution in sterile water. […] The determination of Toxicity (T) of treatments in D. melanogaster was performed following this formula [39]: T = (N° of emerging individuals in treatment/N° of emerging individuals in the negative control) × 100(1) Differences in D. melanogaster survival between treatments at each concentration with respect to negative control were analyzed with a Chi-square test. This procedure was also performed for the analysis of each simple treatment with their correspondent combined treatment.

D. melanogaster [2] = assay: Genotoxicity: Somatic Mutation and Recombination Test (SMART), wing spot test, simple treatments; type: in vivo, Drosophila melanogaster; conditions: for Genotoxicity in the Drosophila wing spot test (in words): simple treatments, all concentrations; for Diagnosis, Large Single Spots >2 Cells m = 5 / Diagnosis, Small Single Spots 1–2 Cells m = 2 / Diagnosis, Total Spots m = 2 / Diagnosis, Twin Spots m = 5 / Mutation rate, Large Single Spots >2 Cells m = 5 / Mutation rate, Small Single Spots 1–2 Cells m = 2 / Mutation rate, Total Spots m = 2 / Mutation rate, Twin Spots m = 5: simple; for Diagnosis, Large Single Spots >2 Cells m = 5: key: + (positive); − (negative); for Diagnosis, Small Single Spots 1–2 Cells m = 2: key: + (positive); − (negative); for Diagnosis, Total Spots m = 2: key: + (positive); − (negative); for Diagnosis, Twin Spots m = 5: key: + (positive); − (negative)
Description: The D. melanogaster system was selected for the determination of the safety of B. officinalis consumption as a well-recognized method to analyze vegetable complex mixtures using SMART [31, 32]. This test was used in order to evaluate the genotoxic and antigenotoxic activity of B. officinalis leaves and petioles as well as their selected bioactive compounds [33]. This activity was measured by direct visualization of the occurrence of recessive mutations in the wing hairs of two different D. melanogaster strains. Flies from experiments carried these visible wing genetic markers: the flare (flr) strain flr^3/ln (3LR) TM3, Bd^s and the multiple wing-hair (mwh) strain mwh/mwh. The marker flare (flr^3, 3_38.3) produces individual malformed hairs and the marker multiple wing hairs (mwh, 3_0.3) produces multiple hairs per cell. Larvae used in treatments come from two types of crosses: the standard cross with flr^3/TM3, Bd^S females mated to mwh/mwh males and the reciprocal cross.
Optimal fertile flies were anesthetized under CO2 narcotisation for cross selection and then placed in new vials for fertilization. After that, hybrid eggs from crossing were collected over an 8 h period and emerged larvae (72 ± 4 h later) were cleaned up for a few seconds in sterile distilled water to remove feeding medium rests. For genotoxicity analysis (simple treatments), groups of 100 larvae were transferred into vials containing 0.85 g of Drosophila Instant Medium (Formula 4–24, Carolina Biological Supply, Burlington, NC, USA) wetted with 4 mL of a mixture of distilled water and increasing concentrations of samples: B. officinalis BF and WF (1.25, 2.5, and 5 mg·mL^−1), RO (0.35, 0.7, 1.39 and 2.78 mM), SY (0.16, 0.32, 0.63 and 1.26 mM), SI (0.15, 0.29, 0.58 and 1.16 mM) and the mixture of these three bioactive compounds at each concentration assayed individually. Bioactive compound concentrations were chosen on the basis of their known content in B. officinalis species. […] Larvae were fed on these media until pupation (about 48 h). After emergence, resulting adult flies were sacrificed under CO2 narcotisation and stored in a 70% ethanol solution in sterile water. Emerged adults were counted for toxicity evaluation and transheterozygous wings (mwh flr^+/mwh^+ flr^3) were mounted on microscope slides and wing hair mutations (spots) scored, using a photonic microscope (Nikon) at 400× magnification for genotoxicity and antigenotoxicity evaluation.
For the evaluation of genotoxic effects, the frequencies of spots per fly of each treated series were compared to the concurrent negative control for each class of mutational clone as well as between simple and combined treatments for the same concentration comparisons. […] A multiple-decision procedure was used to categorize results as positive, inconclusive or negative. Inconclusive and positive results were evaluated by the non-parametric U test of Mann, Whitney and Wilcoxon. The inhibition percentage (IP) of genotoxicity was calculated from the total frequencies of spots per wing, following this formula [42]: IP = (genotoxin alone − sample + genotoxin) × 100/(genotoxin alone)(2)

## COc1cc(C(=O)O)cc(OC)c1O [SY, syringic acid]
D. melanogaster [1]; combined with 0.12 M H2O2, 0.16 mM SY
  Survival: 31.11 *^,‡ %
D. melanogaster [1]; combined with 0.12 M H2O2, 0.32 mM SY
  Survival: 29.33 *^,‡ %
D. melanogaster [1]; combined with 0.12 M H2O2, 0.63 mM SY
  Survival: 20.44 *^,‡ %
D. melanogaster [1]; combined with 0.12 M H2O2, 1.26 mM SY
  Survival: 36.89 *^,‡ %
D. melanogaster [1]; simple treatment, 0.16 mM SY
  Survival: 39.78 * %
D. melanogaster [1]; simple treatment, 0.32 mM SY
  Survival: 42.67 * %
D. melanogaster [1]; simple treatment, 0.63 mM SY
  Survival: 31.11 * %
D. melanogaster [1]; simple treatment, 1.26 mM SY
  Survival: 58.22 * %
D. melanogaster [2]
  Genotoxicity in the Drosophila wing spot test (in words): not mutagenic
D. melanogaster [2]; 0.16 mM SY
  Diagnosis, Large Single Spots >2 Cells m = 5: −
  Diagnosis, Small Single Spots 1–2 Cells m = 2: −
  Diagnosis, Total Spots m = 2: −
  Diagnosis, Twin Spots m = 5: −
  Mutation rate, Large Single Spots >2 Cells m = 5: 0.05 (2) spots/wing
  Mutation rate, Small Single Spots 1–2 Cells m = 2: 0.30 (12) spots/wing
  Mutation rate, Total Spots m = 2: 0.38 (15) spots/wing
  Mutation rate, Twin Spots m = 5: 0.03 (1) spots/wing
D. melanogaster [2]; 0.32 mM SY
  Diagnosis, Large Single Spots >2 Cells m = 5: −
  Diagnosis, Small Single Spots 1–2 Cells m = 2: −
  Diagnosis, Total Spots m = 2: −
  Mutation rate, Large Single Spots >2 Cells m = 5: 0.07 (2) spots/wing
  Mutation rate, Small Single Spots 1–2 Cells m = 2: 0.20 (6) spots/wing
  Mutation rate, Total Spots m = 2: 0.27 (8) spots/wing
  Mutation rate, Twin Spots m = 5: 0 spots/wing
D. melanogaster [2]; 0.63 mM SY
  Diagnosis, Large Single Spots >2 Cells m = 5: −
  Diagnosis, Small Single Spots 1–2 Cells m = 2: −
  Diagnosis, Total Spots m = 2: −
  Mutation rate, Large Single Spots >2 Cells m = 5: 0.02 (1) spots/wing
  Mutation rate, Small Single Spots 1–2 Cells m = 2: 0.19 (9) spots/wing
  Mutation rate, Total Spots m = 2: 0.21 (10) spots/wing
  Mutation rate, Twin Spots m = 5: 0 spots/wing
D. melanogaster [2]; 1.26 mM SY
  Diagnosis, Large Single Spots >2 Cells m = 5: −
  Diagnosis, Small Single Spots 1–2 Cells m = 2: −
  Diagnosis, Total Spots m = 2: −
  Mutation rate, Large Single Spots >2 Cells m = 5: 0.06 (2) spots/wing
  Mutation rate, Small Single Spots 1–2 Cells m = 2: 0.22 (7) spots/wing
  Mutation rate, Twin Spots m = 5: 0 spots/wing

## O=C(/C=C/c1ccc(O)c(O)c1)O[C@H](Cc1ccc(O)c(O)c1)C(=O)O [RO, rosmarinic acid]
D. melanogaster [1]; average of the four concentrations, combined with 0.12 M H2O2
  Survival average in combined treatments: 41.28
D. melanogaster [1]; combined with 0.12 M H2O2, 0.35 mM RO
  Survival: 49.56 * %
D. melanogaster [1]; combined with 0.12 M H2O2, 0.7 mM RO
  Survival: 31.11 *^,‡ %
D. melanogaster [1]; combined with 0.12 M H2O2, 1.39 mM RO
  Survival: 45.56 *^,‡ %
D. melanogaster [1]; combined with 0.12 M H2O2, 2.78 mM RO
  Survival: 38.89 *^,‡ %
D. melanogaster [1]; simple treatment, 0.35 mM RO
  Survival: 48.44 * %
D. melanogaster [1]; simple treatment, 0.7 mM RO
  Survival: 22.22 * %
D. melanogaster [1]; simple treatment, 1.39 mM RO
  Survival: 33.33 * %
D. melanogaster [1]; simple treatment, 2.78 mM RO
  Survival: 21.33% and 21.33 * %
D. melanogaster [2]
  Genotoxicity in the Drosophila wing spot test (in words): not mutagenic
D. melanogaster [2]; 0.35 mM RO
  Diagnosis, Small Single Spots 1–2 Cells m = 2: −
  Diagnosis, Total Spots m = 2: −
  Mutation rate, Large Single Spots >2 Cells m = 5: 0 spots/wing
  Mutation rate, Small Single Spots 1–2 Cells m = 2: 0.38 (6) spots/wing
  Mutation rate, Total Spots m = 2: 0.38 (6) spots/wing
  Mutation rate, Twin Spots m = 5: 0 spots/wing
D. melanogaster [2]; 0.7 mM RO
  Diagnosis, Small Single Spots 1–2 Cells m = 2: −
  Diagnosis, Total Spots m = 2: −
  Diagnosis, Twin Spots m = 5: −
  Mutation rate, Large Single Spots >2 Cells m = 5: 0 spots/wing
  Mutation rate, Small Single Spots 1–2 Cells m = 2: 0.21 (7) spots/wing
  Mutation rate, Total Spots m = 2: 0.26 (9) spots/wing
  Mutation rate, Twin Spots m = 5: 0.06 (2) spots/wing
D. melanogaster [2]; 1.39 mM RO
  Diagnosis, Small Single Spots 1–2 Cells m = 2: −
  Diagnosis, Total Spots m = 2: −
  Diagnosis, Twin Spots m = 5: −
  Mutation rate, Large Single Spots >2 Cells m = 5: 0 spots/wing
  Mutation rate, Small Single Spots 1–2 Cells m = 2: 0.18 (4) spots/wing
  Mutation rate, Total Spots m = 2: 0.23 (5) spots/wing
  Mutation rate, Twin Spots m = 5: 0.05 (1) spots/wing
D. melanogaster [2]; 2.78 mM RO
  Diagnosis, Large Single Spots >2 Cells m = 5: −
  Diagnosis, Small Single Spots 1–2 Cells m = 2: −
  Diagnosis, Total Spots m = 2: −
  Mutation rate, Large Single Spots >2 Cells m = 5: 0.05 (2) spots/wing
  Mutation rate, Small Single Spots 1–2 Cells m = 2: 0.16 (6) spots/wing
  Mutation rate, Total Spots m = 2: 0.21 (8) spots/wing
  Mutation rate, Twin Spots m = 5: 0 spots/wing

## COc1cc(/C=C/C(=O)O)cc(OC)c1O [SI, sinapic acid]
D. melanogaster [1]; combined with 0.12 M H2O2, 0.15 mM SI
  Survival: 64 *^,‡ %
D. melanogaster [1]; combined with 0.12 M H2O2, 0.29 mM SI
  Survival: 58.89 * %
D. melanogaster [1]; combined with 0.12 M H2O2, 0.58 mM SI
  Survival: 39.78 *^,‡ %
D. melanogaster [1]; combined with 0.12 M H2O2, 1.16 mM SI
  Survival: 43.56 *^,‡ %
D. melanogaster [1]; simple treatment, 0.15 mM SI
  Survival: 78.22 * %
D. melanogaster [1]; simple treatment, 0.29 mM SI
  Survival: 60.22 * %
D. melanogaster [1]; simple treatment, 0.58 mM SI
  Survival: 69.33 * %
D. melanogaster [1]; simple treatment, 1.16 mM SI
  Survival: 55.11 * %
D. melanogaster [2]
  Genotoxicity in the Drosophila wing spot test (in words): not mutagenic
D. melanogaster [2]; 0.15 mM SI
  Diagnosis, Large Single Spots >2 Cells m = 5: −
  Diagnosis, Small Single Spots 1–2 Cells m = 2: −
  Diagnosis, Total Spots m = 2: −
  Diagnosis, Twin Spots m = 5: −
  Mutation rate, Large Single Spots >2 Cells m = 5: 0.04 (1) spots/wing
  Mutation rate, Small Single Spots 1–2 Cells m = 2: 0.38 (9) spots/wing
  Mutation rate, Total Spots m = 2: 0.46 (11) spots/wing
  Mutation rate, Twin Spots m = 5: 0.04 (1) spots/wing
D. melanogaster [2]; 0.29 mM SI
  Diagnosis, Large Single Spots >2 Cells m = 5: −
  Diagnosis, Small Single Spots 1–2 Cells m = 2: −
  Diagnosis, Total Spots m = 2: −
  Mutation rate, Large Single Spots >2 Cells m = 5: 0.10 (3) spots/wing
  Mutation rate, Small Single Spots 1–2 Cells m = 2: 0.39 (12) spots/wing
  Mutation rate, Total Spots m = 2: 0.48 (15) spots/wing
  Mutation rate, Twin Spots m = 5: 0 spots/wing
D. melanogaster [2]; 0.58 mM SI
  Diagnosis, Large Single Spots >2 Cells m = 5: −
  Diagnosis, Small Single Spots 1–2 Cells m = 2: −
  Diagnosis, Total Spots m = 2: −
  Mutation rate, Large Single Spots >2 Cells m = 5: 0.07 (2) spots/wing
  Mutation rate, Small Single Spots 1–2 Cells m = 2: 0.33 (10) spots/wing
  Mutation rate, Total Spots m = 2: 0.40 (12) spots/wing
  Mutation rate, Twin Spots m = 5: 0 spots/wing
D. melanogaster [2]; 1.16 mM SI
  Diagnosis, Large Single Spots >2 Cells m = 5: −
  Diagnosis, Small Single Spots 1–2 Cells m = 2: −
  Diagnosis, Total Spots m = 2: −
  Diagnosis, Twin Spots m = 5: −
  Mutation rate, Large Single Spots >2 Cells m = 5: 0.03 (1) spots/wing
  Mutation rate, Small Single Spots 1–2 Cells m = 2: 0.23 (9) spots/wing
  Mutation rate, Total Spots m = 2: 0.28 (11) spots/wing
  Mutation rate, Twin Spots m = 5: 0.03 (1) spots/wing
